# From ChEMBL document CHEMBL1201862, “PubChem BioAssay data set” (2004)
# Calls of active or inactive are those of the source.
# How the values were obtained:
# Albumin = Albumin (Bos taurus, UniProt P02769); assay: Counterscreen for inhibitors of T-cell receptor (TCR)-CD3 interaction: Fluorescence-based biochemical high throughput dose response assay to identify inhibitors of T-cell receptor (TCR)-CD3 interaction using a TAMRA-labeled BSA probe.; format: functional
# fMet-Leu-Phe receptor = fMet-Leu-Phe receptor (Homo sapiens, UniProt P21462); assay: formyl peptide receptor binders – dose response (AID 519); format: functional
# [1] = viability loss in HEK293T cells – cell-based, cherry-picks, cytotoxicity control for HIV Vif inhibitor project, dose response (AID 652208); format: functional
# [2] = target: T1, Sentrin-specific protease 8 (Homo sapiens, UniProt Q96LD8); format: functional
# T1 sequence (Q96LD8 whole entry): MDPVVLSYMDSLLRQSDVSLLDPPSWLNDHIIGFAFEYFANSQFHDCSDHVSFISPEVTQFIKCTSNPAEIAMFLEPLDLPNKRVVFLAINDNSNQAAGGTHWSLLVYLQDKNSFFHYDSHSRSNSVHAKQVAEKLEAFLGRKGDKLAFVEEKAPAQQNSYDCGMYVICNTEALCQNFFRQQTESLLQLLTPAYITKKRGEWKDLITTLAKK
# [3] = target: T1, Sentrin-specific protease 8; format: functional; remark: listed apart in the source
# [4] = HEK-293T viability loss after treatment – luminescence, T-cell screen hits, cytotoxicity control for TCR NF-kB inhibitor project, dose response (AID 489026); format: functional, cell-based;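 further: cells exposed to compound about 14 hours before the viability readout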
# INS1 = assay: INS-1E survival protection against cytokine death – cell-based, luminescence, retest, dose response (AID 449756); format: functional; conditions: Rattus norvegicus;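 further: cell death triggered by IL-1 beta plus TNF-alpha plus IFN-gamma mixture; protective hits raise ATP signal compared with cytokine alone wells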
# Galanin receptor type 3 = Galanin receptor type 3 (Homo sapiens, UniProt O60755); assay: Fluorescence-based cell-based primary high throughput dose response assay to identify antagonists of the Galanin Receptor 3 (GalR3).; format: functional
# cells = format: functional, cell-based; conditions: HEK-CNG
# [5] = target: COUP transcription factor 2 (Homo sapiens, UniProt P24468); assay: Luminescence-based cell-based high throughput dose response assay to identify inhibitors of COUP-TFII (NR2F2).; format: functional;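 further: HEK293 cells transiently cotransfected with COUP-TFII expression vector and reporter; luciferase reporter luminescence driven by COUP-TFII from the pX2-168 reporter plasmid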
# [6] = target: T2, Heat shock factor protein 1 (Mus musculus, UniProt P38532); assay: enhancement of HSF1-driven luciferase signal – cell-based, NIH3T3, luminescence, dose retest, confirmation (AID 435004); format: functional;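 further: stress induced by proteasome inhibitor MG132 added 30 min after compound; luciferase reporter driven by HSF1 response element in NIH3T3 cells; actives raise luminescence as potentiators of the MG132 stress response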
# T2 sequence (P38532 whole entry): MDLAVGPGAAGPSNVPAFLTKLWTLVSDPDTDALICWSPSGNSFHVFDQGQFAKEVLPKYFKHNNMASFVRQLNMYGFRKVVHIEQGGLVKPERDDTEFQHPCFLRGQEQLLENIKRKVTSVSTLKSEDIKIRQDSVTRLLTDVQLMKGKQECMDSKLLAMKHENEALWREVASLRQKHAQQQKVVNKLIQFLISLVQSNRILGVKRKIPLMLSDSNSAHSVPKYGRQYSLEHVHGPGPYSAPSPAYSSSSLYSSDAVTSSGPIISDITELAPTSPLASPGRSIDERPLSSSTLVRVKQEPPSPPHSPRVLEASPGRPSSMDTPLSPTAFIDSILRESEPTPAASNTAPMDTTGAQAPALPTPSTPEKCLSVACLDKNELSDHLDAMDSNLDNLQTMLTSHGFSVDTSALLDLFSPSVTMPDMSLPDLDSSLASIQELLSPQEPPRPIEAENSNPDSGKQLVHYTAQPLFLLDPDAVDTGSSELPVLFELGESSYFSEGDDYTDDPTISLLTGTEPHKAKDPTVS
# [7] = target: DNA repair and recombination protein RAD54-like (Homo sapiens, UniProt Q92698); assay: RAD54 Holliday junction migration blockers – biochemical, fluorescence, cherry-picked samples, dose series, confirmation (AID 651657); format: functional
# [8] = target: Nuclear receptor subfamily 5 group A member 2 (Homo sapiens, UniProt O00482); format: functional, cell-based;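 further: HEK293T cells transfected with LRH-1 and a StAR promoter luciferase reporter; potency for inhibitors that lower LRH-1 driven reporter light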
# Steroidogenic factor 1 = Steroidogenic factor 1 (Homo sapiens, UniProt Q13285); assay: Counterscreen for inverse agonists of the liver receptor homolog-1 (LRH-1; NR5A2): Luminescence-based cell-based high throughput dose response assay to identify inverse agonists of the Steroidogenic Factor 1 Nuclear Receptor (SF1; NR5A1).; format: functional
# [9] = nonselective StAR promoter luciferase inhibitors – cell-based, luminescence, luciferase reporter, counter-screen for LRH-1 inverse agonist project, dose response (AID 651969); format: functional
# [10] = target: T3, DNA repair protein RAD52 homolog (Homo sapiens, UniProt P43351); format: functional, biochemical
# T3 sequence (P43351 whole entry): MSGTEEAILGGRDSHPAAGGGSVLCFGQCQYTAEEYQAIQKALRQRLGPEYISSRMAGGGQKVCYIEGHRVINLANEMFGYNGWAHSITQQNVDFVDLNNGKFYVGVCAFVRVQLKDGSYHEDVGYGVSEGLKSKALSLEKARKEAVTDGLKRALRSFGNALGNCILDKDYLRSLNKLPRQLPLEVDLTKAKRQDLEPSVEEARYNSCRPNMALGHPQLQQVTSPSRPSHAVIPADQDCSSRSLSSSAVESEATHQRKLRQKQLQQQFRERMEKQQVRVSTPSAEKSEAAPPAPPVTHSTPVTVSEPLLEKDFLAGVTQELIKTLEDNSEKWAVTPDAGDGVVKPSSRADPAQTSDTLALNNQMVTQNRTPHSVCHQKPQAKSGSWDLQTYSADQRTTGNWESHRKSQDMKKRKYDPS
# fMet-Leu-Phe receptor, sequence (P21462 whole entry): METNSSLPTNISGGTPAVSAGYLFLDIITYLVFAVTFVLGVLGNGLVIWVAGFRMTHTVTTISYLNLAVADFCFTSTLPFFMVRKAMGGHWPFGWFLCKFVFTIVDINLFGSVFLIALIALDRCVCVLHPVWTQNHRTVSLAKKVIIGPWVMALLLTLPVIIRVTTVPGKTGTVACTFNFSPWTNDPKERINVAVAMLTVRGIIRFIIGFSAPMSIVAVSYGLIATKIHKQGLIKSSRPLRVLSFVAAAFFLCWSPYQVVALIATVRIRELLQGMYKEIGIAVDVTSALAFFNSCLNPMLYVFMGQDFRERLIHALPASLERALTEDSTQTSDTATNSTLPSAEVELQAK
# DNA repair and recombination protein RAD54-like, sequence (Q92698 whole entry): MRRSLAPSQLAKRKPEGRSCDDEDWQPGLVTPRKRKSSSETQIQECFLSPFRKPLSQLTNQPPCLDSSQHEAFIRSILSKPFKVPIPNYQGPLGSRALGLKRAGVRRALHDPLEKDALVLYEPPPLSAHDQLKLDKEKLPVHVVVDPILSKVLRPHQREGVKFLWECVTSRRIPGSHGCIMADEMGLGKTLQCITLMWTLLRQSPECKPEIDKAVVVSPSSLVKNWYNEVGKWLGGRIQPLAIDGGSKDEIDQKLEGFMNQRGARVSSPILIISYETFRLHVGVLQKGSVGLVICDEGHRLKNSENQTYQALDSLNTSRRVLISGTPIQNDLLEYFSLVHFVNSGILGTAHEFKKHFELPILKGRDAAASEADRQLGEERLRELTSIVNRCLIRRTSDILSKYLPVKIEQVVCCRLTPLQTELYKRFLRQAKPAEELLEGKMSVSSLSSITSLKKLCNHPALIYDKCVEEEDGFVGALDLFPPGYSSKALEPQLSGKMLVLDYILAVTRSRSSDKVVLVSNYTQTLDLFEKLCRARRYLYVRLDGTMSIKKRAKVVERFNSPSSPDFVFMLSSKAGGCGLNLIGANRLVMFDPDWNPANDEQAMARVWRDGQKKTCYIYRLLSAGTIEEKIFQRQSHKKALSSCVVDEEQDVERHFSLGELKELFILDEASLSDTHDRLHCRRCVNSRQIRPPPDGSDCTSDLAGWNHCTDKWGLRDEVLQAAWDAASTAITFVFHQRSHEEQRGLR
# Steroidogenic factor 1, sequence (Q13285 whole entry): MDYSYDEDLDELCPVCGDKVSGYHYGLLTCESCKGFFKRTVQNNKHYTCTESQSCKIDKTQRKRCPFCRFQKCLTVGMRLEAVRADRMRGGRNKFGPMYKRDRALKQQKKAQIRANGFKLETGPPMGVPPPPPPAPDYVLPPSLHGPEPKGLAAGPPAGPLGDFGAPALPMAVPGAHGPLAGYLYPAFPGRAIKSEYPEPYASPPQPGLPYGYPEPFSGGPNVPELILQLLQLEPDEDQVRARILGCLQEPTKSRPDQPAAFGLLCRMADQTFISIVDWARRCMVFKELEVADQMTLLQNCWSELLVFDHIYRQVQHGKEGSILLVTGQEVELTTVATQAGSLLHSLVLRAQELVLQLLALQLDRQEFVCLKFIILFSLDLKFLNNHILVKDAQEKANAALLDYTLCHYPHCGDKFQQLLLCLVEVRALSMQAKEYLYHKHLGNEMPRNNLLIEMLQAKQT
# Nuclear receptor subfamily 5 group A member 2, sequence (O00482 whole entry): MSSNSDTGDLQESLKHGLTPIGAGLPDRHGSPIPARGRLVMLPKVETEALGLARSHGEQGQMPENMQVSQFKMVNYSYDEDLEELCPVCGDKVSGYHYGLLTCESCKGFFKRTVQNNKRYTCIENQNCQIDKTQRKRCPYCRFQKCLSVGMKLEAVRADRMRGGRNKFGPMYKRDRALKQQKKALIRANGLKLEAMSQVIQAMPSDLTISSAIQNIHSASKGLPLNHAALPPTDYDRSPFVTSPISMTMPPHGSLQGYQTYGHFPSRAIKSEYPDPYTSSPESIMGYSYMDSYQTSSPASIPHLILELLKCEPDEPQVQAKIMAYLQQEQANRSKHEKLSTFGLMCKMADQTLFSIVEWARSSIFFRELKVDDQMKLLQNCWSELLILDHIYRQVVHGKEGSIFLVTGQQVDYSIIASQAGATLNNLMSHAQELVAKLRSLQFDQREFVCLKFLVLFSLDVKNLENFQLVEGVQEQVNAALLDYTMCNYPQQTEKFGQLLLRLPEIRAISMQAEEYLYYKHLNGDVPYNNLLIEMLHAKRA
# Galanin receptor type 3, sequence (O60755 whole entry): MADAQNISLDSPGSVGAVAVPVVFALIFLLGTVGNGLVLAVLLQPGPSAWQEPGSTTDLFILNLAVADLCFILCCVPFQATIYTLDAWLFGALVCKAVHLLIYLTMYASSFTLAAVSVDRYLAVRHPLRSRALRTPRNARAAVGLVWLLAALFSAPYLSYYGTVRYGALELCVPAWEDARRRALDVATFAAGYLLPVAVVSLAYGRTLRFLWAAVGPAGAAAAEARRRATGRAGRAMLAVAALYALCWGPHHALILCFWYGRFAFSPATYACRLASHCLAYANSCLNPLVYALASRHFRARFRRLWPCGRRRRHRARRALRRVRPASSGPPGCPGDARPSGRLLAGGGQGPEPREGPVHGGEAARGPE
# COUP transcription factor 2, sequence (P24468 whole entry): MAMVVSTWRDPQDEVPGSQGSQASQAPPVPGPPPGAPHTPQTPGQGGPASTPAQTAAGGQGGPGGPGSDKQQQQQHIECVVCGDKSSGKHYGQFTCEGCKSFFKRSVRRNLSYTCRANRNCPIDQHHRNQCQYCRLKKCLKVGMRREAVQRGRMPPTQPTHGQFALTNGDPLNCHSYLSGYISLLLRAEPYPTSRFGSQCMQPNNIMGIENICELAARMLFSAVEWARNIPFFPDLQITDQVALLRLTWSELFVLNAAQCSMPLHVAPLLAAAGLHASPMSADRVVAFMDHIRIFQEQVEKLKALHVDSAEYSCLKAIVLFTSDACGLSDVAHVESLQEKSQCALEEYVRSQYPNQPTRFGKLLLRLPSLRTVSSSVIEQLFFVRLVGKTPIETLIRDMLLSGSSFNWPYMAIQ
# Albumin, sequence (P02769 whole entry): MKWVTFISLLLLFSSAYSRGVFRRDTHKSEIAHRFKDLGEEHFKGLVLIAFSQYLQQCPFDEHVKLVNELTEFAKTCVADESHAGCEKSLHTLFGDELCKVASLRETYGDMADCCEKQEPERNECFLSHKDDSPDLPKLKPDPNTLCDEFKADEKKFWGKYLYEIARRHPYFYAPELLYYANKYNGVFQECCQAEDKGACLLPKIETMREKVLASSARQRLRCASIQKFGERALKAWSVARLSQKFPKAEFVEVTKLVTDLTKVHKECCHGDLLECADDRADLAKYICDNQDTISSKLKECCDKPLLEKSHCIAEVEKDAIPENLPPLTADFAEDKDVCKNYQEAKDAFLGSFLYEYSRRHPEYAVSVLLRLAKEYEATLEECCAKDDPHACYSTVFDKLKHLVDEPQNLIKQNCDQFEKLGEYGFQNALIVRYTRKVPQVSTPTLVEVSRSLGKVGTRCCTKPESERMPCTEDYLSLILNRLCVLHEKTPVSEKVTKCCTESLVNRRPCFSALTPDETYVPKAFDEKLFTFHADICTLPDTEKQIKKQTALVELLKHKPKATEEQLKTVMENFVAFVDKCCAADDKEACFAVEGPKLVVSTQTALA
smiles,measurement,setting,value
CNC(=S)N/N=C/c1cc(Br)cc(Br)c1O,IC50,Albumin,> 94.1 µM (inactive)
COc1ccc(-c2nc(N3CCCC3)[nH]c(=O)c2C#N)cc1,Ki,fMet-Leu-Phe receptor,> 66.7 µM (inactive)
COc1ccc(-c2coc3c(C(=O)Nc4cccc(C(C)=O)c4)cccc23)c(C)c1,AC50,[1],> 52 µM (inactive)
O=C(COC(=O)c1cc(S(=O)(=O)N2CCc3ccccc3C2)ccc1Cl)NCc1ccco1,IC50,[2],> 100 µM (inactive)
same,IC50,[3],12.4 µM (active)
O=C(CSc1nnc(Cn2nnc3ccccc32)o1)N(Cc1ccc(F)cc1)c1ccccc1,IC50,[4],> 80 µM (inactive)
same,AC50,INS1,4.43 µM (active)
same,IC50,Galanin receptor type 3,1.24 µM (active)
same,EC50,cells,> 29.9 µM (inactive)
same,IC50,[5],4.87 µM (active)
CCOC(=O)c1c(NC(C)=O)sc2c(O)c(CN3CCN(CC)CC3)ccc12,EC50,[6],55.8 µM (active)
same,AC50,[7],32.1 µM (active)
CN(C)S(=O)(=O)c1cccc(C(=O)OCC(=O)Nc2ccc3c(c2)OCCO3)c1,IC50,[8],90.5 µM (inactive)
same,IC50,Steroidogenic factor 1,3.18 µM (active)
same,IC50,[9],35.9 µM (inactive)
Cc1cc(NC(=O)CSc2nnc(Cn3c(=O)sc4ccccc43)n2-c2ccccc2C)no1,Ki,fMet-Leu-Phe receptor,> 66.7 µM (inactive)
CCOC(=O)c1cnc2ccc(OCC)cc2c1NCCCN1CCOCC1,AC50,[7],11.7 µM (active)
same,AC50,[10],11.2 µM (active)
